Laboratory results from patent US4710505A, “Asymmetric heterocyclic ester derivatives of 1,4-dihydropyridine-3,5-dicarboxylic acids” (Societe de Recherches Industrielles (S.O.R.I.), priority 1985, dated 1987).
Where two headings read alike, the source gives them in different places.

Tests used:
rabbit aorta = experiment: Relaxing effect on isolated rabbit aorta contracted (depolarized) by KCl; conditions: Oryctolagus cuniculus, read-out: ED50 (dose causing a 50% relaxation of the precontracted arteries)
Protocol: I. RELAXING EFFECT ON ISOLATED RABBIT AORTA CONTRACTED BY KCl
The thoracic aortae of male rabbits are removed, cut into narrow strips and placed under tension in an oxygenated survival medium. The contractions of these arteries, the amplitude of which is measured using a myograph, are induced by a 127 mM solution of KCl [R. Towart et al., Arzneim.-Forsch./Drug Res. 32, 338-346 (1982)]. The compounds studied are dissolved in a mixture of anhydrous ethanol and double distilled water (1:1) v/v, the percentage of ethanol in the baths being less than or equal to 0.3% at the end of the experiment. When the contraction plateau is reached, the compound is added to the medium in increasing doses every 15 minutes.

anesthetized dogs = experiment: Hemodynamic effects on anesthetized dogs, intraduodenal administration; type: in vivo, Mongrel dogs; conditions: for % variation T.P.R. (total peripheral resistances) / duration of the effect, T.P.R. (total peripheral resistances): calculated
Protocol: III. HEMODYNAMIC EFFECTS ON ANESTHETIZED DOGS Mongrel dogs are anesthetized with pentobarbital sodium (25 mg/kg i.v.). Each animal is placed under artificial respiration and a catheter is introduced into the aorta to measure the arterial pressure. The outputs of the aorta (O. Aor.), right femoral artery (O. Fem.) and left coronary artery (descending part) (O. Cor.) are measured continuously by means of electromagnetic rings. The total peripheral resistances (T.P.R.) are also calculated. […]

[1] = tested on: spontaneously hypertensive rats; experiment: Antihypertensive activity in spontaneously hypertensive rats, oral administration; type: in vivo; conditions: for change in vivo at 30 mg/kg / change in vivo at 10 mg/kg: Rattus norvegicus
Protocol: Spontaneously hypertensive rats aged between 16 and 20 weeks are used. The systolic pressure is measured by plethysmography and the heart rate is obtained from the pressure graph. The compounds studied are administered orally.

in vivo = conditions: rat, intravenous, male Wistar rats weighing 300 g
Protocol: The LD50 was determined by intravenous administration to male Wistar rats weighing 300 g.

[2] = tested on: spontaneously hypertensive rats; experiment: Antihypertensive activity in spontaneously hypertensive rats, intravenous administration; type: in vivo; conditions: single i.v. dose; Ex. 2 30, Ex. 7 100, Ex. 8 300, Ex. 11 30 and 100 μg/kg; versus nicardipine and nifedipine
Excerpt: 2. Intravenous administration
Spontaneously hypertensive rats aged between 16 and 20 weeks are used. They are anesthetized with diethyl ether, a cannula is inserted into the caudal artery to measure the arterial pressure and a catheter is inserted into the right jugular vein to administer the compounds as described previously (L. S. Watson and L. T. Ludden, New Antihypertensive Drugs, pages 87-96, Spectrum Publication, Inc., 1976).
Each curve C relates to the control group receiving only the vehicle and each curve T relates to the treated group [n (number of animals per group)=4-7]. The said groups are compared either by analysis of variance, if the variances are homogenous (Bartlett's homocedasticity test), or by Kruskall-Wallis's non-parametric test (the statistically significant results being represented as follows:
FIGS. 1-6 relate to the variation in systolic pressure, expressed in mm Hg (1 mm Hg corresponds approximately to 1.333×10^2 Pa), as a function of time, expressed in minutes, and FIGS. 1a-6a relate to the variation in diastolic pressure, also expressed in mm Hg, as a function of time, expressed in minutes, for the treated groups (curves T) compared with the corresponding control groups (curves C), the doses of products administered being as follows:
FIGS. 2 and 2a: nicardipine at 30 μg/kg i.v.,
FIGS. 3 and 3a: Example 2 at 30 μg/kg i.v.,
FIGS. 4 and 4a: Example 7 at 100 μg/kg i.v.,
FIGS. 5 and 5a: Example 8 at 300 μg/kg i.v., and
FIGS. 6 and 6a: Example 11 at 30 and 100 μg/kg i.v. (curves T1 and T2).

[3] = 30 mg/kg, read-out: % variation Heart rate
[4] = 30 mg/kg, read-out: % variation Systolic pressure
[5] = rabbit aorta depolarized by 127 mM KCl
[6] = 0.5 mg/kg, versus nicardipine and nifedipine

For `COC(=O)C1=C(C)NC(C)=C(C(=O)OC)C1c1ccccc1[N+](=O)[O-]` [nifedipine, dimethyl 1,4-dihydro-2,6-dimethyl-4-(2-nitrophenyl)pyridine-3,5-dicarboxylate, reference compound], the EC50 (rabbit aorta) was 22 nM, the “% variation D.P. (diastolic pressure)” value (anesthetized dogs; 0.35 mg/kg) was -44.2% and the “% variation O. Aor. (output of the aorta)” value (anesthetized dogs; 0.35 mg/kg) was “+20.5%”. The “% variation O. Cor. (output of left coronary artery)” value (anesthetized dogs; 0.35 mg/kg) was “+66.4%”, the “% variation O. Fem. (output of right femoral artery)” value (anesthetized dogs; 0.35 mg/kg) was “+76.4%” and the “duration of the effect, D.P. (diastolic pressure)” value (anesthetized dogs; 0.35 mg/kg) was 240 min. The “duration of the effect, O. Fem. (output of right femoral artery)” value (anesthetized dogs; 0.35 mg/kg) was 10 min, the “% variation T.P.R. (total peripheral resistances)” value (anesthetized dogs; 0.35 mg/kg) was -48.6% and the “duration of the effect, T.P.R. (total peripheral resistances)” value (anesthetized dogs; 0.35 mg/kg) was 180 min. For the same compound, the change in vivo at 30 mg/kg [1, 3] was 35.4% and the change in vivo at 30 mg/kg [1, 4] was -35.2 ± 4.7%.
With `COC(=O)C1=C(C)NC(C)=C(C(=O)OCC2COC(C(F)(F)F)(C(F)(F)F)O2)C1c1cccc([N+](=O)[O-])c1` (centres unmarked) [Example 13] the EC50 (rabbit aorta; [5]) was > 5000 nM, the “duration of the effect, Systolic pressure” value (“duration … Systolic pressure” for short) ([1]; 30 mg/kg) was > 24 h and the change in vivo at 30 mg/kg [1, 3] was 25%.
In the case of `COC(=O)C1=C(C)NC(C)=C(C(=O)OCCN(C)Cc2ccccc2)C1c1cccc([N+](=O)[O-])c1` (centres unmarked) [nicardipine, methyl 2-(N-methyl-N-benzylamino)ethyl 1,4-dihydro-2,6-dimethyl-4-(3-nitrophenyl)pyridine-3,5-dicarboxylate, reference compound], the EC50 (rabbit aorta; [5]) is reported as 26 nM, the “% variation D.P. (diastolic pressure)” value (anesthetized dogs; 0.5 mg/kg) is reported as -34.5% and the “% variation O. Aor. (output of the aorta)” value (anesthetized dogs; 0.5 mg/kg) is reported as “+25%”. The “% variation O. Cor. (output of left coronary artery)” value (anesthetized dogs; 0.5 mg/kg) was “+62.2%”, the “% variation O. Fem. (output of right femoral artery)” value (anesthetized dogs; 0.5 mg/kg) was “+70.6%” and the “duration of the effect, D.P. (diastolic pressure)” value (anesthetized dogs; 0.5 mg/kg) was 150 min. For the same compound, the “% variation T.P.R. (total peripheral resistances)” value (anesthetized dogs; 0.5 mg/kg) was -40.5%, the “duration of the effect, T.P.R. (total peripheral resistances)” value (anesthetized dogs; 0.5 mg/kg) was 90 min and the change in vivo at 30 mg/kg [1, 3] was 21.3%. It also gave a change in vivo at 30 mg/kg [1, 4] of -46.2 ± 6.8% and an LD50 (in vivo) of 11.8 mg/kg.
With `COC(=O)C1=C(C)NC(C)=C(C(=O)OCC2COC(c3ccccc3)(c3ccccc3)O2)C1c1cccc([N+](=O)[O-])c1` (racemic) [Example 8] the EC50 (rabbit aorta; [5]) was > 5000 nM, the “duration … Systolic pressure” value ([1]; 30 mg/kg) was > 24 h and the change in vivo at 30 mg/kg [1, 3] was 12.4%. For the same compound, the change in vivo at 30 mg/kg [1, 4] was -37 ± 9%, the LD50 (in vivo) was 44.4 mg/kg and the “duration of the antihypertensive effect (in words)” value [2] was “notably longer than that of nicardipine and nifedipine”.
With `COC(=O)C1=C(C)NC(C)=C(C(=O)OCC2COC(c3ccccc3)O2)C1c1cccc([N+](=O)[O-])c1` (centres unmarked) [Example 14] the EC50 (rabbit aorta; [5]) was > 5000 nM, the “duration of the effect, Heart rate” value ([1]; 30 mg/kg) was > 24 h and the “duration … Systolic pressure” value ([1]; 30 mg/kg) was > 24 h. It also gave a change in vivo at 30 mg/kg [1, 3] of 19.9% and a change in vivo at 30 mg/kg [1, 4] of -58.4 ± 32.9%.
`COC(=O)C1=C(C)NC(C)=C(C(=O)OCC2COCO2)C1c1cccc([N+](=O)[O-])c1` (racemic) [Example 3] gave an EC50 (rabbit aorta; [5]) of 43 nM.
With `COC(=O)C1=C(C)NC(C)=C(C(=O)OCC2COC3(CCCC3)O2)C1c1cccc([N+](=O)[O-])c1` (centres unmarked) [Example 5, methyl (1,4-dioxaspiro[4,4]nonan-2-yl)methyl 1,4-dihydro-2,6-dimethyl-4-(3-nitrophenyl)pyridine-3,5-dicarboxylate] the “duration of the effect, Heart rate” value ([1]; 30 mg/kg) was 4 h, the change in vivo at 30 mg/kg [1, 3] was 19.3% and the change in vivo at 30 mg/kg [1, 4] was -40.4 ± 9.4%.
In the case of `COC(=O)C1=C(C)NC(C)=C(C(=O)OCC2COC(c3ccccc3)(C(F)(F)F)O2)C1c1cccc([N+](=O)[O-])c1` (centres unmarked) [Example 12], the EC50 (rabbit aorta; [5]) is reported as 5000 nM, the “duration … Systolic pressure” value ([1]; 10 mg/kg) is reported as > 24 h and the change in vivo at 10 mg/kg ([1]; 10 mg/kg, read-out: % variation Heart rate) is reported as 31.2%. It also gave a change in vivo at 10 mg/kg ([1]; 10 mg/kg, read-out: % variation Systolic pressure) of -41.4 ± 10%.
In the case of `COC(=O)C1=C(C)NC(C)=C(C(=O)OCC2(C)OCCO2)C1c1cccc([N+](=O)[O-])c1` (centres unmarked) [CP 1, methyl 2,2ethylenedioxypropyl 2,6dimethyl-4-(3-nitrophenyl)-1,4-dihydropyridine-3,5-dicarboxylate, reference compound], the EC50 (rabbit aorta; [5]) is reported as 250 nM, the “duration … Systolic pressure” value ([1]; 30 mg/kg) is reported as 0 h and the change in vivo at 30 mg/kg [1, 3] is reported as 0%. It also gave a change in vivo at 30 mg/kg [1, 4] of -11.6 ± 6%.
With `COC(=O)C1=C(C)NC(C)=C(C(=O)OCC2COC(C)(C)O2)C1c1cccc([N+](=O)[O-])c1` (centres unmarked) [Example 1, methyl (2,2-dimethyl-1,3-dioxolan-4-yl)methyl 1,4-dihydro-2,6-dimethyl-4-(3-nitrophenyl)pyridine-3,5-dicarboxylate] the EC50 (rabbit aorta; [5]) was 31 nM, the “% variation D.P. (diastolic pressure)” value (anesthetized dogs; 0.5 mg/kg) was -42.6% and the “% variation O. Aor. (output of the aorta)” value (anesthetized dogs; 0.5 mg/kg) was “+124%”. The “% variation O. Cor. (output of left coronary artery)” value (anesthetized dogs; 0.5 mg/kg) was “+73.6%”, the “% variation O. Fem. (output of right femoral artery)” value (anesthetized dogs; 0.5 mg/kg) was “+114%” and the “duration of the effect, D.P. (diastolic pressure)” value (anesthetized dogs; 0.5 mg/kg) was 120 min. For the same compound, the “duration of the effect, O. Aor. (output of the aorta)” value (anesthetized dogs; 0.5 mg/kg) was 120 min, the “duration of the effect, O. Fem. (output of right femoral artery)” value (anesthetized dogs; 0.5 mg/kg) was 270 min and the “% variation T.P.R. (total peripheral resistances)” value (anesthetized dogs; 0.5 mg/kg) was -65%. The “duration of the effect, T.P.R. (total peripheral resistances)” value (anesthetized dogs; 0.5 mg/kg) was 300 min, the “cardiac, femoral and coronary outputs (in words)” value (anesthetized dogs; [6]) was “increased for a longer time and to a greater extent” and the “drop in total peripheral resistances (in words)” value (anesthetized dogs; [6]) was “greater drop in total peripheral resistances than nicardipine and nifedipine”. For the same compound, the “duration of drop in total peripheral resistances (in words)” value (anesthetized dogs; [6]) was “considerably longer”, the change in vivo at 30 mg/kg [1, 3] was 16.4% and the change in vivo at 30 mg/kg [1, 4] was -28.4 ± 7.3%. For the same compound, the LD50 (in vivo) was 22.5 mg/kg.
In the case of `COC(=O)C1=C(C)NC(C)=C(C(=O)OCC2COC(C)(c3ccccc3)O2)C1c1cccc([N+](=O)[O-])c1` (racemic) [Example 7], the “duration … Systolic pressure” value ([1]; 30 mg/kg) is reported as > 24 h, the change in vivo at 30 mg/kg [1, 3] is reported as 36.4% and the change in vivo at 30 mg/kg [1, 4] is reported as -40.5 ± 5.1%. The LD50 (in vivo) was 17.8 mg/kg and the “duration of the antihypertensive effect (in words)” value [2] was “notably longer than that of nicardipine and nifedipine”.
In the case of `COC(=O)C1=C(C)NC(C)=C(C(=O)OCC2CSC(C)(C)O2)C1c1cccc([N+](=O)[O-])c1` (racemic) [Example 6], the EC50 (rabbit aorta; [5]) is reported as 35 nM, the change in vivo at 30 mg/kg [1, 3] is reported as 21.4% and the change in vivo at 30 mg/kg [1, 4] is reported as -35.1 ± 9.2%. The LD50 (in vivo) was 34.2 mg/kg.
In the case of `COC(=O)C1=C(C)NC(C)=C(C(=O)OCC2COC(C)(c3ccc(Cl)cc3Cl)O2)C1c1cccc([N+](=O)[O-])c1` (racemic) [Example 11], the EC50 (rabbit aorta; [5]) is reported as > 5000 nM, the “duration … Systolic pressure” value ([1]; 30 mg/kg) is reported as > 24 h and the change in vivo at 30 mg/kg [1, 3] is reported as 34%. The change in vivo at 30 mg/kg [1, 4] was -54 ± 5.9%, the LD50 (in vivo) was 38.9 mg/kg and the “duration of the antihypertensive effect (in words)” value [2] was “notably longer than that of nicardipine and nifedipine”.
Compound `COC(=O)C1=C(C)NC(C)=C(C(=O)OCCC2COC(C)(C)O2)C1c1cccc([N+](=O)[O-])c1` (racemic) [Example 4, methyl 2-[(2,2-dimethyl-1,3-dioxolan-4-yl)ethyl]1,4-dihydro-2,6-dimethyl-4-(3-nitrophenyl)pyridine-3,5-dicarboxylate] has an EC50 (rabbit aorta; [5]) of 32 nM.
